For 7 compounds, inhibition, IC50 and Activity results are on record in ChEMBL document CHEMBL4130415, “Discovery of new MD2-targeted anti-inflammatory compounds for the treatment of sepsis and acute lung injury” (Eur J Med Chem, 2017).

SMILES strings stand for the structures. The source made the active and inactive calls. The calls are words filed in the database; no cut-off is given here.

Assay [1] deals with Peritoneal macrophage. Kind of assay: Antiinflammatory activity in ICR mouse primary peritoneal macrophages assessed as inhibition of LPS-induced TNF-alpha production at 10 uM pretreated for 2 hrs followed by LPS challenge measured after 22 hrs by ELISA relative to control. The format is functional. (An ELISA detects its analyte on a solid surface through an enzyme-linked reagent.)

The test system of assay [2] is Peritoneal macrophage. Put plainly: Antiinflammatory activity in ICR mouse primary peritoneal macrophages assessed as inhibition of LPS-induced IL-6 production at 10 uM pretreated for 2 hrs followed by LPS challenge measured after 22 hrs by ELISA relative to control. Format: functional.
Assay [3] has as its system Peritoneal macrophage. Kind of assay: Antiinflammatory activity in ICR mouse primary peritoneal macrophages assessed as inhibition of LPS-induced TNF-alpha production pretreated for 2 hrs followed by LPS challenge measured after 22 hrs by ELISA. Format: functional, cell-based.
Assay [4] deals with Peritoneal macrophage. Kind of assay: Antiinflammatory activity in ICR mouse primary peritoneal macrophages assessed as inhibition of LPS-induced IL-6 production pretreated for 2 hrs followed by LPS challenge measured after 22 hrs hrs by ELISA. Format: functional, cell-based.
Assay [5] deals with Peritoneal macrophage. Kind of assay: Antiinflammatory activity in ICR mouse primary peritoneal macrophages assessed as inhibition of Pam3CK-induced TNF-alpha production at 10 uM pretreated for 2 hrs followed by Pam3CK challenge measured after 12 hrs by ELISA. Format: functional, cell-based.
Assay [6] deals with Mus musculus. Kind of assay: Antiinflammatory activity in LPS-induced C57BL/6 mouse assessed as mouse survival at 10 mg/kg, iv pretreated for 15 mins followed by LPS challenge measured after 7 days. The format is functional, organism-based.
The test system of assay [7] is Mus musculus. Put plainly: Antiinflammatory activity in C57BL/6 mouse assessed as reduction in LPS-induced total protein level in bronchoalveolar lavage fluid at 10 mg/kg, iv pretreated for 15 mins followed by LPS challenge measured after 6 hrs. The format is functional, organism-based.
In assay [8] the test system is Mus musculus. Kind of assay: Antiinflammatory activity in C57BL/6 mouse assessed as reduction in LPS-induced total cell numbers in bronchoalveolar lavage fluid at 10 mg/kg, iv pretreated for 15 mins followed by LPS challenge measured after 6 hrs by flow cytometric analysis. The format is functional, organism-based. (A flow cytometer gives signals particle by particle.)

For assay [9], the system named is Mus musculus. Kind of assay: Antiinflammatory activity in C57BL/6 mouse assessed as reduction in LPS-induced wet to dry lung edema ratio at 10 mg/kg, iv pretreated for 15 mins followed by LPS challenge measured after 6 hrs. Format: functional, organism-based.
The test system of assay [10] is Mus musculus. Kind of assay: Antiinflammatory activity in C57BL/6 mouse assessed as reduction in LPS-induced TNF-alpha mRNA level in bronchoalveolar lavage fluid at 10 mg/kg, iv pretreated for 15 mins followed by LPS challenge measured after 6 hrs by qPCR analysis. The format is functional, organism-based.
Assay [11] deals with Mus musculus. Kind of assay: Antiinflammatory activity in C57BL/6 mouse assessed as reduction in LPS-induced IL-6 mRNA level in bronchoalveolar lavage fluid at 10 mg/kg, iv pretreated for 15 mins followed by LPS challenge measured after 6 hrs by qPCR analysis. The format is functional, organism-based. For orientation: In qPCR the cycle at which signal appears reflects the starting amount.

Assay [12] deals with Mus musculus. Put plainly: Antiinflammatory activity in C57BL/6 mouse assessed as reduction in LPS-induced IL-1beta mRNA level in bronchoalveolar lavage fluid at 10 mg/kg, iv pretreated for 15 mins followed by LPS challenge measured after 6 hrs by qPCR analysis. The format is functional, organism-based.
In assay [13] the test system is Mus musculus. Put plainly: Antiinflammatory activity in C57BL/6 mouse assessed as reduction in LPS-induced inflammatory cell infiltration in lung at 10 mg/kg, iv pretreated for 15 mins followed by LPS challenge measured after 6 hrs by hematoxylin and eosin staining-based light microscopic analysis. Format: functional, organism-based.
The subject of assay [14] is Mus musculus. Kind of assay: Antiinflammatory activity in C57BL/6 mouse assessed as reduction in LPS-induced interalveolar septal thickening in lung at 10 mg/kg, iv pretreated for 15 mins followed by LPS challenge measured after 6 hrs by hematoxylin and eosin staining-based light microscopic analysis. The format is functional, organism-based.
Assay [15] relates to Mus musculus. Put plainly: Antiinflammatory activity in C57BL/6 mouse assessed as reduction in LPS-induced interstitial edema in lung at 10 mg/kg, iv pretreated for 15 mins followed by LPS challenge measured after 6 hrs by hematoxylin and eosin staining-based light microscopic analysis. Format: functional, organism-based.
Assay [16] relates to Mus musculus. Put plainly: Antiinflammatory activity in LPS-induced C57BL/6 mouse assessed as increase in immunoreactivity to CD68 in lung at 10 mg/kg, iv pretreated for 15 mins followed by LPS challenge measured after 6 hrs by immunohistochemical analysis. Format: functional, organism-based.

The inhibition is the change of the read-out against control, counted positive when it falls. For `COc1cc(OC)c(/C=C/C(=O)/C=C/c2cccc(OC)c2OC)c(OC)c1`, the inhibition entry in the assay on Peritoneal macrophage [1] and with Peritoneal macrophage [2] was “inactive” in each case.
Take `COc1cc(O)c(CC=C(C)C)c(O)c1C(=O)/C=C/c1ccc(O)cc1`: the inhibition result in the assay with Peritoneal macrophage [1] and in the assay with Peritoneal macrophage [2] was “inactive” in each case.
The term IC50 denotes the concentration that gives 50% inhibition. Consider `COc1cccc(/C=C/C(=O)/C=C/c2ccc(O)c(Br)c2)c1OC`, for which the IC50 amounted to 2.96 µM with Peritoneal macrophage [3] and 3.62 µM with Peritoneal macrophage [4]. Moreover, the inhibition result in the assay on Peritoneal macrophage [3] and in the assay on Peritoneal macrophage [4] was “Dose-dependent effect” throughout. Also, the inhibition entry in the assay on Peritoneal macrophage [5] was “inactive”. Further, the outcome in the assay with Mus musculus [6] was Active.
Take `COc1ccccc1/C=C/C(=O)/C=C/c1ccc(O)c(Br)c1`: in the assay on Peritoneal macrophage [3], the IC50 is 3.71 µM and the inhibition entry was “Dose-dependent effect”. In addition, in the assay with Peritoneal macrophage [4], the concentration for half-maximal inhibition (IC50) was 4.13 µM and the inhibition result is “Dose-dependent effect”. Further, in the assay with Peritoneal macrophage [5], the inhibition result is “inactive”.
As for `COc1cc(OC)c(/C=C/C(=O)/C=C/c2ccc(OC)c(OC)c2)c(OC)c1`, the inhibition result in the assay with Peritoneal macrophage [1] and in the assay with Peritoneal macrophage [2] was “inactive” each time.
In the case of `COc1ccc(/C=C2\CCC/C(=C\c3cccc(OC)c3OC)C2=O)c(F)c1`, the inhibition result with Peritoneal macrophage [1] and in the assay with Peritoneal macrophage [2] was “inactive” in each case.
On to `COc1ccccc1/C=C/C(=O)/C=C/c1ccccc1Br`, for which the inhibition at 10 µM in the assay with Peritoneal macrophage [1] is 97.6%; in the assay with Peritoneal macrophage [2] it was 99.6%. In addition, the IC50 was determined as 4.73 µM in the assay on Peritoneal macrophage [3] and 4.18 µM in the assay on Peritoneal macrophage [4]. The inhibition result with Peritoneal macrophage [3] and with Peritoneal macrophage [4] was “Dose-dependent effect” in each case. Further, the inhibition result with Peritoneal macrophage [5] was “inactive”. The outcome in the assay on Mus musculus [6], in the assay with Mus musculus [7], in the assay with Mus musculus [8], in the assay on Mus musculus [9], in the assay with Mus musculus [10] and in the assay on Mus musculus [11] was Active. Also, the result in the assay on Mus musculus [12], in the assay with Mus musculus [13], with Mus musculus [14], with Mus musculus [15] and in the assay with Mus musculus [16] was Active.
